≈ marks a conversion by molar mass, not a printed value.

Data on 18 compounds can be found in patent publication US20230058189A1, “QUINOLIN-4-ONE AND 4(1H)-CINNOLINONE COMPOUNDS AND METHODS OF USING SAME” (Frequency Therapeutics, Inc., priority 2019, published 2023).

A short description of data set [1]: Thermodynamic aqueous solubility at pH 7.4. The class given is physicochemical. To be noted: aqueous buffer, thermodynamic from solid, phosphate buffer pH 7.4, 25° C., approximate values, read-out: Concentration (thermodynamic aqueous solubility). On the procedure:
The aqueous thermodynamic solubilities of the compounds of the present disclosure were measured at pH 7.4.
Determining suitability for use of a compound, e.g., as a therapeutic agent can include determining the thermodynamic solubility of the compound. An example of this determination follows: Accurately weigh about 1 mg of the powder of each compound into a glass insert vial and phosphate buffer into each vial of a capless Solubility Sample plate with the volume of 1 mL per mg. Next, add one stir stick to each vial and seal with a molded PTDE/SIL 96-Well Plate Cover. Transfer the Solubility Sample plate to an Eppendorf Thermomixer Comfort plate shaker and shake the plate at 25° C. at 1,100 rpm for 24 hours. At the end of the incubation, open the cover and remove the stir sticks using a big magnet and transfer the samples from the Solubility Sample plate into the filter plate. Using the vacuum manifold, all the samples were filtered. An aliquot of 100 μL was transferred from filtrate to a new 96-well plate by addition of 900 μL of a mixture of H2O and acetonitrile containing an internal standard (1:1) (10 fold) and 10 μL of the diluted solution was pipetted into a new 96-well plate by addition of 990 μL of a mixture of H2O and acetonitrile containing internal standard (1:1) (1,000 fold). The dilution factor may be changed according to the solubility value and the LC/MS signal response.
To prepare standards for the assay, accurately weigh about 1 mg of the powder of each compound into a glass insert vial, add DMSO into each vial of the Standard Plate with the volume of 1 mL per mg to obtain the 1 mg/mL STD sample. Aliquots of 10 μL were taken from 1 mg/mL STD sample to a new 96-well plate followed by addition of 990 μL of a mixture of H2O and acetonitrile containing internal standard (1:1) to obtain 10 μg/mL STD and then 10 μL aliquots were taken from 10 μg/mL sample to a new 96-well plate followed by addition of 990 μL of a mixture of H2O and acetonitrile containing internal standard (1:1) to obtain 0.1 μg/mL STD. The concentration of the standard sample may be changed according to the LC/MS signal response.
The samples were analyzed and quantified against the standard of known concentration using LC/MS/MS. The solubility of the test compound was calculated as follows: [Sample]=Area Ratio sample×DF sample×[STD]/Area Ratio STD DF means the dilution factor. Any value of the compounds that is not within the specified limits was rejected and the experiment was repeated.

The test system of data set [2] is Lgr5+ cells (cochlear stem cells). Nature of the data set: Lgr5+ assay: expansion of Lgr5-positive cochlear cells in 3D culture. To be noted: for % of Lgr5+ Positive Cells / Potency (Lgr5+ activity): 10 days culture with EGF, bFGF, IGF1, approximate values; for Potency (Lgr5+ activity): effective concentration for Lgr5+ expansion; for Lgr5 GFP+ progenitor cell proliferation (Lgr5 positive cell count) / enrichment of Lgr5 GFP+ cochlear progenitor cells (percent of Lgr5 positive cells): in a background of growth factors, compared to CHIR-99021 and its combinations (figures). The class given is cell-based, mouse. From the text:
“Stem Cell Proliferation Assay” as used herein is an assay to determine the capacity for agent(s) to induce the creation of stem cells from a starting cell population. In an exemplary Stem Cell Proliferation Assay, the number of cells for an initial cell population is harvested from a Lgr5-GFP mouse such as a B6.129P2-Lgr5tm1(cre/ERT2)Cle/J mouse (also known as Lgr5-EGFP-IRES-creERT2 or Lgr5-GFP mouse, Jackson Lab Stock No: 008875) between the age of 3 to 7 days, by isolating the organ of Corti sensory epithelium and dissociating the epithelium into single cells. Approximately 5000 cells are entrapped in 40 μl of culture substrate (for example, Matrigel (Corning, Growth Factor Reduced)) and placed at the center of wells in a 24-well plate with 500 μl of an appropriate culture media, growth factors and agent being tested. Appropriate culture media and growth factors include Advanced DMEM/F12 with media supplements (1×N2, 1×B27, 2 mM Glutamax, 10 mM HEPES, 1 mM N-acetylcysteine, and 100 U/ml penicillin/100 μg/ml streptomycin) and growth factors (50 ng/ml EGF, 50 ng/ml bFGF, and 50 ng/ml IGF-1) as well as the agent(s) being assessed are added into each well. Cells are cultured for 10 days in a standard cell culture incubator at 37° C. and 5% CO2, with media change every 2 days. The number of Lgr5^+ cells is quantified by counting the number of cells identified as Lgr5+ in an in vitro Lgr5 activity assay (i.e., an assay mearing in vitro Lgr5 activity). The fraction of cells that are Lgr5^+ is quantified by dividing the number of cells identified as Lgr5^+ in a cell population by the total number of cells present in the cell population. The average Lgr5^+ activity of a population is quantified by measuring the average mRNA expression level of Lgr5 of the population normalized using suitable and unregulated references or housekeeping genes (e.g., Hprt). The number of hair cells in a population may be measured by staining with hair cell marker (e.g., MyosinVIIa), or using an endogenous reporter of hair cell genes (e.g., Pou4f3-GFP, Atoh1-nGFP) and analyzing using flow cytometry. The fraction of cells that are hair cells is quantified by dividing the number of cells identified as hair cells in a cell population by the total number of cells present in the cell population. Lgr5 activity can be measured by qPCR.
The compounds of the present disclosure were used in Lgr5-EGFP-IRES-Cre-ER mice (Barker et al., 2007) to analyze the effects of small molecules on cochlear stem cell expansion.
Isolation of stem cells from the inner ear: All animal studies were conducted under an approved institutional protocol according to National Institutes of Health guidelines. For experiments with neonatal mice (postnatal days 1-3), the cochleae were dissected in Hank's Balanced Salt Solution (HBSS) and the organs of Corti were separated from the stria vascularis and the modiolus. The organs of Corti were then treated with Cell Recovery Solution (Corning) for 1 hour to separate cochlear epithelium from the underlying mesenchyme. Epithelia were then collected and treated with TrypLE (Life Technologies) for 15-20 minutes at 37° C. Single cells obtained by mechanical trituration were filtered (40 μm) and suspended in Matrigel® (Corning) for 3D culture.
Cells were cultured in a 1:1 mixture of DMEM and F12, supplemented with Glutamax (GIBCO), N2, B27 (Invitrogen), EGF (50 ng/ml; Chemicon), bFGF (50 ng/ml; Chemicon), IGF1 (50 ng/ml; Chemicon) and the composition provided herein. Medium was changed every other day.
Lgr5-positive cells were quantified after 10 days (D10) in culture in multiple conditions. Cell colonies were dissociated into single cells using TrypLE (Gibco). The cells were then stained with propidium iodide (P1) and were analyzed using a flow cytometer for Lgr5-GFP expression. The number of GFP-positive cells and the percentage of GFP-positive cells were quantified. […]

A further data set concerns the target Foxo-1 (Homo sapiens, UniProt Q12778). To be noted: from Molecular Pharmacology (2010), 78(5), 961-970; approximate values; read-out: Potency Foxo-1; cited from earlier work.

Chain of Foxo-1 (Q12778 whole entry, species assumed): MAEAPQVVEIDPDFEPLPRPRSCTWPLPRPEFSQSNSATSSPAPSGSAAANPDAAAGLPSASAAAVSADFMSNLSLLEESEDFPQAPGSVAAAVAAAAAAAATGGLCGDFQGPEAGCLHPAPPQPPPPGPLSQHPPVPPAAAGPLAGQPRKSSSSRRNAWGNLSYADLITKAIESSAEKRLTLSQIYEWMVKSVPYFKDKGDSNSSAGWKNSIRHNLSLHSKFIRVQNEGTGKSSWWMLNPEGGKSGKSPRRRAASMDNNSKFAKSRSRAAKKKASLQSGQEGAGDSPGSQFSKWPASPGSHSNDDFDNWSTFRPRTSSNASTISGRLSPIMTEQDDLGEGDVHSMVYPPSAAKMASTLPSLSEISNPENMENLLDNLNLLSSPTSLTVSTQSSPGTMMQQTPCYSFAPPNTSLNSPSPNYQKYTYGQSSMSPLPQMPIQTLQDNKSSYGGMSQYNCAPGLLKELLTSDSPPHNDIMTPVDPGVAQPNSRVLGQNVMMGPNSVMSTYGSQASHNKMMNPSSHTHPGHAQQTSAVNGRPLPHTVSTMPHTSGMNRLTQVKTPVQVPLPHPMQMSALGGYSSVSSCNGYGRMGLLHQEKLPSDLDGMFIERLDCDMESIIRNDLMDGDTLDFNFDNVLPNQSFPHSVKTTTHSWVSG

In the case of `CCn1cc(C(=O)O)c(=O)c2c(N)c(F)c(NC3CCCCC3)cc21` [Compound I-7], the solubility thermodynamic at 24 h in data set [1] is less than 0.12 µM. Further, in data set [2], the “% of Lgr5+ Positive Cells” value turned out to be 22%, the “Potency (Lgr5+ activity)” value is 0.37 µM, the “Lgr5 GFP+ progenitor cell proliferation (Lgr5 positive cell count)” value (“Lgr5 GFP+ progenitor cell proliferation” for short) is given as “generate Lgr5 GFP+ progenitor cell proliferation” and the “enrichment of Lgr5 GFP+ cochlear progenitor cells (percent of Lgr5 positive cells)” value (from here on “enrichment … (percent of Lgr5 positive cells)”) is reported as “generates enrichment of Lgr5 GFP+ cochlear progenitor cells”. Also, the IC50 on Foxo-1 was less than 0.1 µM.
With `CCn1cc(C(=O)O)c(=O)c2c(N)c(F)c(N[C@H]3CC[C@@H](N[C@@H]4C[C@H]4c4ccccc4)CC3)cc21` (relative stereo) [Compound I-28], the solubility thermodynamic at 24 h in data set [1] amounted to 4 µM (≈ 1.91 µg/mL). For the same compound, in data set [2], the “% of Lgr5+ Positive Cells” value is recorded as 40%, the “Potency (Lgr5+ activity)” value stood at 8 µM, the “Lgr5 GFP+ progenitor cell proliferation” value is recorded as “generates Lgr5 GFP+ progenitor cell proliferation” and the “enrichment … (percent of Lgr5 positive cells)” value is on record as “generates enrichment of Lgr5 GFP+ cochlear progenitor cells”.
Take `CCn1cc(C#N)c(=O)c2c(N)c(F)c(NCCN[C@@H]3C[C@H]3c3ccccc3)cc21` (relative stereo) [Compound I-84]: the solubility thermodynamic at 24 h in data set [1] stood at 49 µM (≈ 19.9 µg/mL). In data set [2], the “% of Lgr5+ Positive Cells” value is 9% and the “Potency (Lgr5+ activity)” value was determined as 1.1 µM.
On the same counts, the results for `CCn1cc(C(=O)O)c(=O)c2c(N)c(F)c(NC3CC3)cc21` [Compound I-15] are 2.4 µM (≈ 0.733 µg/mL), 30% and 3.3 µM.
On the same counts, the results for `CCn1cc(C(=O)O)c(=O)c2c(N)c(F)c(NCc3ccccc3)cc21` [Compound I-17] are 0.11 µM (≈ 0.0391 µg/mL), 22% and 3.3 µM.
On the same counts, the results for `CCn1cc(C(=O)O)c(=O)c2c(N)c(F)c(NCCc3ccccc3)cc21` [Compound I-18] are 0.12 µM (≈ 0.0443 µg/mL), 31% and 1.1 µM.
Regarding `CCn1cc(C(=O)O)c(=O)c2c(N)cc(NCCCc3ccccc3)cc21` [Compound I-57], the solubility thermodynamic at 24 h in data set [1] is less than 0.03 µM. In addition, in data set [2], the “% of Lgr5+ Positive Cells” value is recorded as 1% and the “Potency (Lgr5+ activity)” value was found to be 30 µM.
The matching figures for `CCn1cc(C(=O)O)c(=O)c2c(N)c(F)c(N[C@H]3C[C@@H](c4ccccc4)C3)cc21` [Compound I-61]: less than 0.002 µM, 30% and 1.1 µM.
For `CCn1cc(C(=O)O)c(=O)c2c(N)c(F)c(NC3Cc4ccccc4C3)cc21` [Compound I-11], the solubility thermodynamic at 24 h in data set [1] is less than 0.08 µM. Besides, in data set [2], the “% of Lgr5+ Positive Cells” value came to 17% and the “Potency (Lgr5+ activity)” value came out at 3.3 µM.
On the same counts, the results for `CCn1cc(C(=O)O)c(=O)c2c(N)c(F)c(N[C@H]3C[C@H](c4ccccc4)C3)cc21` [Compound I-60] are less than 10 µM, 30% and 0.37 µM.
For the compound `CCn1cc(C(=O)O)c(=O)c2c(N)c(F)c(NCCN[C@@H]3C[C@H]3c3ccccc3)cc21` (relative stereo) [Compound I-29], in data set [1], the solubility thermodynamic at 24 h was 1.93 µM (≈ 0.819 µg/mL). Moreover, in data set [2], the “% of Lgr5+ Positive Cells” value was 38%, the “Potency (Lgr5+ activity)” value was found to be 4 µM, the “Lgr5 GFP+ progenitor cell proliferation” value is recorded as “generates Lgr5 GFP+ progenitor cell proliferation” and the “enrichment … (percent of Lgr5 positive cells)” value was “generates enrichment of Lgr5 GFP+ cochlear progenitor cells”.
Regarding `CCn1cc(C(=O)O)c(=O)c2c(N)c(F)c(NCCN[C@@H]3C[C@]34CCc3ccccc34)cc21` (relative stereo) [Compound I-81], in data set [1], the solubility thermodynamic at 24 h was 1.2 µM (≈ 0.541 µg/mL). In addition, in data set [2], the “% of Lgr5+ Positive Cells” value was 65% and the “Potency (Lgr5+ activity)” value was 10 µM.
The matching figures for `CCn1cc(C(=O)O)c(=O)c2c(N)c(F)c(NC3CCCC3)cc21` [Compound I-9]: less than 1.8 µM, 13% and 1.1 µM.
For `CCn1cc(C(=O)O)c(=O)c2c(N)c(F)c(N[C@@H]3C[C@H]3c3ccccc3)cc21` (single isomer, unassigned) [Compound I-20], in data set [1], the solubility thermodynamic at 24 h is less than 0.3 µM. Besides, the “% of Lgr5+ Positive Cells” value in data set [2] came to 42%.
Turning to `CCn1cc(C(=O)O)c(=O)c2c(N)c(F)c(NC3CC(N[C@@H]4C[C@H]4c4ccccc4)C3)cc21` (relative stereo) [Compound I-70], the solubility thermodynamic at 24 h in data set [1] was determined as 1.6 µM (≈ 0.721 µg/mL). Further, in data set [2], the “% of Lgr5+ Positive Cells” value came to 30% and the “Potency (Lgr5+ activity)” value is 3.3 µM.
In the case of `Cn1cc(C(=O)O)c(=O)c2c(N)c(F)c(NCCN[C@@H]3C[C@H]3c3ccccc3)cc21` (relative stereo) [Compound I-86], the solubility thermodynamic at 24 h in data set [1] was determined as 23 µM (≈ 9.44 µg/mL). In data set [2], the “% of Lgr5+ Positive Cells” value came to 4% and the “Potency (Lgr5+ activity)” value was greater than 30 µM.
Take `CCC(CC)n1cc(C(=O)O)c(=O)c2c(C)c(F)c(NC3CCCCC3)cc21` [Compound I-3]: in data set [2], the “% of Lgr5+ Positive Cells” value is less than 5% and the “Potency (Lgr5+ activity)” value was greater than 10 µM. The IC50 on Foxo-1 was less than 0.1 µM.
On to `CCn1cc(C(=O)O)c(=O)c2c(N)c(F)c(N[C@H]3CC[C@H](N[C@@H]4C[C@H]4c4ccccc4)CC3)cc21` (relative stereo) [Compound I-27], for which the solubility thermodynamic at 24 h in data set [1] turned out to be 4.7 µM (≈ 2.25 µg/mL). In data set [2], the “% of Lgr5+ Positive Cells” value stood at 26% and the “Potency (Lgr5+ activity)” value came out at 1.1 µM.
